Source: ChEMBL document CHEMBL2150982, “Synthesis and SAR of 1-hydroxy-1H-benzo[d]imidazol-2(3H)-ones as Inhibitors of D-Amino Acid Oxidase” (ACS Med Chem Lett, 2012)

How the values were obtained:
D-amino-acid oxidase [1] = target: D-amino-acid oxidase (Homo sapiens, UniProt P14920); experiment: Inhibition of human recombinant DAAO expressed in HEK293 cells using D-serine as substrate after 20 mins by horseradish peroxidase-coupled assay
D-amino-acid oxidase [2] = target: D-amino-acid oxidase (Sus scrofa, UniProt P00371); experiment: Inhibition of pig DAAO using D-serine as substrate after 20 mins by horseradish peroxidase-coupled assay
D-amino-acid oxidase (Sus scrofa, UniProt P00371), sequence (P00371 whole entry): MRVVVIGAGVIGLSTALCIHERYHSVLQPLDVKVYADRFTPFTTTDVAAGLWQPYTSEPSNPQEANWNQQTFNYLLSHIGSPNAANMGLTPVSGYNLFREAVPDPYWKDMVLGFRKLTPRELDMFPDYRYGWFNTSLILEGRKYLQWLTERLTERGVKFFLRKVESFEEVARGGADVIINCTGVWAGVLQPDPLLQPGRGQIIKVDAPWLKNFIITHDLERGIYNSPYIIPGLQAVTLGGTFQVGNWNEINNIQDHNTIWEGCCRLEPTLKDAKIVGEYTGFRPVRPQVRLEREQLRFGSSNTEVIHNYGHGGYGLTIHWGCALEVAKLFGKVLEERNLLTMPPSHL

Mus musculus [3] = experiment: Pharmaco-enhancing activity in CD1 mouse assessed as increase in D-serine level in plasma at 30 mg/kg, po relative to control; assay type: ADME, organism-based; set-up: dose 30 mg/kg, route oral; conditions: in vivo
Plasma = experiment: (§1) Metabolic stability in mouse plasma assessed as compound remaining at 5 uM after 1 hr by LC/MS/MS analysis; assay type: ADME, cell-free; conditions: 1 h, 5 µM
[4] = Metabolic stability in mouse liver microsomes assessed as compound remaining at 5 uM after 1 hr by LC/MS/MS analysis; assay type: ADME, Microsome; conditions: read-out: Stability
Liver [5] = experiment: (§2) Metabolic stability in mouse liver microsomes assessed as compound remaining at 5 uM after 1 hr by LC/MS/MS analysis in presence of NADPH; assay type: ADME, Microsome; conditions: microsomes, 1 h, 5 µM
Liver [6] = experiment: Metabolic stability in mouse liver microsomes assessed as compound remaining at 5 uM after 1 hr by LC/MS/MS analysis in presence of UDPGA; assay type: ADME, Microsome
Mus musculus [7] = experiment: Pharmaco-enhancing activity in CD1 mouse assessed as increase in D-serine level in plasma at 30 mg/kg, po measured up to 2 hrs relative to control; assay type: ADME, organism-based; set-up: dose 30 mg/kg, route oral; conditions: in vivo
[8] = as §1; assay type: ADME, cell-free; conditions: read-out: Stability
[9] = as §2; assay type: ADME, Microsome; conditions: liver microsomes, read-out: Stability
Mus musculus [10] = experiment: Pharmaco-enhancing activity in CD1 mouse assessed as increase in D-serine level in plasma at 30 mg/kg, po measured at 30 mins relative to control; assay type: ADME, organism-based; set-up: dose 30 mg/kg, route oral; conditions: in vivo, 0.5 h

D-amino-acid oxidase (Homo sapiens, UniProt P14920), sequence (P14920 whole entry): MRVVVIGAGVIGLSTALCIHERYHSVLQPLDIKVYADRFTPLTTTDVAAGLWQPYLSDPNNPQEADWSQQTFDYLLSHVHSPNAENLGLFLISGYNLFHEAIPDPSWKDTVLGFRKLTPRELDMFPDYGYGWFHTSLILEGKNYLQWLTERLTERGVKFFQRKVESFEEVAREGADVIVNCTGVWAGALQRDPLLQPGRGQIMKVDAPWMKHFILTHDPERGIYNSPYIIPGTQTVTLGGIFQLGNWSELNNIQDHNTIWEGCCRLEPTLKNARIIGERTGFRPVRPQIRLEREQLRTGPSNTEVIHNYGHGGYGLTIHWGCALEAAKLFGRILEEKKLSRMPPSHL

Row | Structure (SMILES) | IC50 (D-amino-acid oxidase [1]) | IC50 (D-amino-acid oxidase [2]) | also measured
1 | Oc1nc2ccccc2[nH]1 | > 100 µM |  | 
2 | Nn1c(=O)[nH]c2ccccc21 | > 100 µM |  | 
3 | COn1c(=O)[nH]c2ccccc21 | > 100 µM |  | 
4 | Cn1c(=O)n(O)c2ccccc21 | > 100 µM |  | 
5 | O=C1Nc2ccccc2C1O (stereo unspecified) | > 100 µM |  | 
6 | O=c1[nH]c2ncccc2n1O | 1 µM |  | 
7 | O=c1[nH]c2c(Cc3ccccc3)cccc2n1O | 10 µM | 50 µM | 
8 | CCOc1cccc2c1[nH]c(=O)n2O | 50 µM | 50 µM | 
9 | CC(C)c1cccc2c1[nH]c(=O)n2O | 20 µM | 10 µM | 
10 | CCCc1cccc2c1[nH]c(=O)n2O | 20 µM | 30 µM | 
11 | CCC(C)c1cccc2c1[nH]c(=O)n2O (stereo unspecified) | > 100 µM | 40 µM | 
12 | O=c1[nH]c2c3c(ccc2n1O)CCO3 | 0.8 µM | 0.2 µM | 
13 | O=c1[nH]c2c(F)cc(F)cc2n1O | 0.08 µM | 0.4 µM | Activity (Mus musculus [7]): Active; remaining at 1 h, 5 µM [8]: 100%; remaining at 1 h, 5 µM [4]: 100%; remaining at 1 h, 5 µM [9]: 100%; Stability (Liver [6]): 0.6%; Activity (Mus musculus [10]): Active
14 | O=c1[nH]c2cc3c(cc2n1O)CCC3 | 30 µM | 10 µM | 
15 | O=c1[nH]c2ccc(F)c(F)c2n1O | 8 µM | 20 µM | 
16 | O=c1[nH]c2ccc3c(c2n1O)CCC3 | > 100 µM | > 100 µM | 
17 | O=C1Cc2ccccc2N1O | > 100 µM |  | 

More lines, main results first:

Row | IC50 (D-amino-acid oxidase [1]) | IC50 (D-amino-acid oxidase [2]) | Structure (SMILES) | also measured
18 | 30 µM |  | O=c1[nH]c2cccnc2n1O | 
19 | 70 µM |  | O=c1[nH]c2ccncc2n1O | 
20 | 0.6 µM | 1 µM | O=c1[nH]c2ccccc2n1O | 
21 | 0.1 µM | 0.5 µM | O=c1[nH]c2c(F)cccc2n1O | 
22 | 0.2 µM | 0.4 µM | Cc1cccc2c1[nH]c(=O)n2O | 
23 | 80 µM | 20 µM | CCc1cccc2c1[nH]c(=O)n2O | 
24 | 0.1 µM | 0.4 µM | COc1cccc2c1[nH]c(=O)n2O | Activity (Mus musculus [3]): Not Active; Stability (Plasma): 90%; remaining at 1 h, 5 µM [4]: 100%; Stability (Liver [5]): 60%; Stability (Liver [6]): Unstable
25 | 20 µM | 1 µM | Cc1ccc2c([nH]c(=O)n2O)c1C | 
26 | 0.07 µM | 0.7 µM | Cc1c(F)ccc2c1[nH]c(=O)n2O | 
27 | 20 µM | 4 µM | Cc1cc(C)c2[nH]c(=O)n(O)c2c1 | 
28 | 0.9 µM | 1 µM | O=c1[nH]c2cc(F)ccc2n1O | 
29 | 4 µM | 4 µM | Cc1ccc2c(c1)[nH]c(=O)n2O | 
30 | 70 µM | 30 µM | O=c1[nH]c2cc(F)c(F)cc2n1O | 
31 | 2 µM | 1 µM | Cc1cc2[nH]c(=O)n(O)c2cc1F | 
32 | 0.4 µM | 0.6 µM | O=c1[nH]c2ccc(F)cc2n1O | 
33 | 9 µM | 2 µM | O=c1[nH]c2ccc(Cl)cc2n1O | 
34 | 30 µM | 7 µM | Cc1ccc2[nH]c(=O)n(O)c2c1 | 
35 | > 100 µM | > 100 µM | Cc1c(F)ccc2[nH]c(=O)n(O)c12 | 
36 | 3 µM | 20 µM | O=c1[nH]c2cccc(F)c2n1O | 
37 | 40 µM | > 100 µM | Cc1cccc2[nH]c(=O)n(O)c12 | 
